Counter-ions that a name gives are not always drawn.
Key:
[1] = biological target: T1, CCK-B (Cavia porcellus, UniProt H0VZC5); test: displacement of specific 125I-CCK from guinea pig brain (CCK-B receptor binding); conditions: read-out: CCK RECEPTOR BINDING RESULTS IC50 125I-CCK Brain
T1 construct: guinea pig brain (CCK-B); from tissue; host or cells: guinea pig brain
T1 sequence (H0VZC5 1-426): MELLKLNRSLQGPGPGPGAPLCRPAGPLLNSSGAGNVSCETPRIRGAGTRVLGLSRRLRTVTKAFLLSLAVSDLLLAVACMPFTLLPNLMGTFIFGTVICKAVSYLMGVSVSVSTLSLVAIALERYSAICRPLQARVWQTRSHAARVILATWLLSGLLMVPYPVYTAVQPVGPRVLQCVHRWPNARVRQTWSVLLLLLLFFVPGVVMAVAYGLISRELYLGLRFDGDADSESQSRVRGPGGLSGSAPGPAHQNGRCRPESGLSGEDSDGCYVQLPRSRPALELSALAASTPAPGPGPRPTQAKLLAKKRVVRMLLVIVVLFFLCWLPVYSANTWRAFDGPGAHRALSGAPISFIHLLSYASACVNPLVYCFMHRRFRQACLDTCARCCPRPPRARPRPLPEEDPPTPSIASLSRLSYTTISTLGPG
Protocol: (§1) The CCK-A and CCK-B antagonising activity of the compounds described herein was evaluated using the assays described in published European patent application no. 0514133. The method essentially involves determining the concentration of the test compound required to displace 50% of the specific ^125 I-CCK from rat pancreas (CCK-A) or guinea pig brain (CCK-B). The data in Table 1 were obtained for compounds of the Examples.

[2] = biological target: T2, CCK-A (Rattus norvegicus, UniProt P30551); test: biochemical; type: binding; conditions: rat pancreas (CCK-A), 125I-CCK; read-out: CCK RECEPTOR BINDING RESULTS IC50 125I-CCK Pancreas
T2 sequence (P30551 1-444): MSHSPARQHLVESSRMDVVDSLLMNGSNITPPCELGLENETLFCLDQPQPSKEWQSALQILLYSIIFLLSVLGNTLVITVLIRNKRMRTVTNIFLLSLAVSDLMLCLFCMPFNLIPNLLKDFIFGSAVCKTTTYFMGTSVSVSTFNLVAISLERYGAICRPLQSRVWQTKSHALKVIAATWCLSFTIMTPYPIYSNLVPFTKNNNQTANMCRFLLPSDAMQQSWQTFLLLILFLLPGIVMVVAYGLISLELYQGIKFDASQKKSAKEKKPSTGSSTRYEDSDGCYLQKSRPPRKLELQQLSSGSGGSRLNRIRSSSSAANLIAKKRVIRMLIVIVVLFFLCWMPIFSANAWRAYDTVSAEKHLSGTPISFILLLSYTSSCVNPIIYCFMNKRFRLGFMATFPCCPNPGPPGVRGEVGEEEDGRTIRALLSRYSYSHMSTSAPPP
Protocol: as §1, with “(CCK-B).” for “(CCK-B). The data in Table 1 were obtained for compounds of the Examples.”

Structure (SMILES)	IC50 [1] [nM]	IC50 [2] [nM]
Cc1cccc(NC(=O)NC2N=C(N(C)C3CCN(C)CC3)c3ccccc3N(C)C2=O)c1 (racemic) [Example 73, N-[3(R,S)-5-(N-(4-N-Methylpiperidinyl)-N-methylamino)-2,3-dihydro-1-methyl-2-oxo-1H-1,4-benzodiazepin-3-yl]-N'-[3-methylphenyl]urea]	1410	> 3000
CCCN(CCC)C1=NC(NC(=O)Nc2cccc(C)c2)C(=O)N(C)c2ccccc21 (racemic) [Example 75, N-[3(R,S)-5-(N,N-Di-^npropylamino)-2,3-dihydro-1-methyl-2-oxo-1H-1,4-benzodiazepin-3-yl]-N-[3-methylphenyl]urea]	46.9	314
Cc1cccc(NC(=O)NC2N=C(N(C)C3CCC(C)(C)CC3)c3ccccc3N(C)C2=O)c1 (racemic) [Example 77, N-[3(R,S)-5-(N-(4,4-Dimethylcyclohexyl)-N-methylamino)-2,3-dihydro-1-methyl-2-oxo-1H-1,4-benzodiazepin-3-yl]-N'-[3-methylphenyl]urea]	81.1	135
Cc1cccc(NC(=O)NC2N=C(N(Cc3ccccc3)C3CCCCC3)c3ccccc3N(C)C2=O)c1 (racemic) [Example 80, N-[3(R,S)-5-(N-Benzyl-N-cyclohexylamino)-2,3-dihydro-1-methyl-2-oxo-1H-1,4-benzodiazepin-3-yl]-N'-[3-methylphenyl]urea]	32.4	1140
Cc1cccc(NC(=O)NC2N=C(NCCN(C)C)c3ccccc3N(C)C2=O)c1 (racemic) [Example 84, N-[3(R,S)-2,3-Dihydro-5-(2-(N,N-dimethylamino)ethylamino)-1-methyl-2-oxo-1H-1,4-benzodiazepin-3-yl]-N'-[3-methylphenyl]urea dihydrochloride]	1900	> 3000
Cc1cccc(NC(=O)NC2N=C(N(C)CCN3CCOCC3)c3ccccc3N(C)C2=O)c1 (racemic) [Example 85, N-[3(R,S)-2,3-Dihydro-5-(N-(2-N-morpholinoethyl)-N-methylamino)-1-methyl-2-oxo-1H-1,4-benzodiazepin-3-yl]-N'-[3-methylphenyl]urea]	785	> 3000
CN1C(=O)C(NC(=O)c2cc3ccccc3[nH]2)N=C(N2CC3CCC(CC3)C2)c2ccccc21 (racemic) [Example 87, 3(R,S)-N-(5-(3-Azabicyclo[3,2,2]nonan-3-yl)-2,3-dihydro-1-methyl-2-oxo-1H-1,4-benzodiazepin-3-yl)-1H-indole-2-carboxamide]	509	0.87
CC(C)CN1C(=O)C(NC(=O)c2cc3ccccc3[nH]2)N=C(N2CCCCCC2)c2ccccc21 (racemic) [Example 90, 3(R,S)-N-(2,3-Dihydro-5-(homopiperidin-1-yl)-1-(2-methylpropyl)-2-oxo-1H-1,4-benzodiazepin-3-yl)-1H-indole-2-carboxamide]	225	8.7
CC(C)CN1C(=O)C(NC(=O)Cc2c[nH]c3ccccc23)N=C(N2CCCCCC2)c2ccccc21 (racemic) [Example 94, 3(R,S)-N-(2,3-Dihydro-5-(homopiperidin-1-yl)-1-(2-methylpropyl)-2-oxo-1H-1,4-benzodiazepin-3-yl)-1H-indole-3-acetamide]	119	646
CC(C)CN1C(=O)C(NC(=O)c2cc3ccccc3[nH]2)N=C(N2CCC(C)CC2)c2ccccc21 (racemic) [Example 95, 3(R,S)-N-(2,3-Dihydro-5-(4-methylpiperidin-1-yl)-1-(2-methylpropyl)-2-oxo-1H-1,4-benzodiazepin-3-yl)-1H-indole-2-carboxamide]	161	11.6
CC1CCN(C2=NC(NC(=O)Nc3cccc(N4CCN(C)CC4)c3)C(=O)N(C)c3ccccc32)CC1 (racemic) [Example 96, N-[3(R,S)-2,3-Dihydro-1-methyl-5-(4-methylpiperidin-1-yl)-2-oxo-1H-1,4-benzodiazepin-3-yl]N'-[3-(N-methyl-N'-piperazinyl)phenyl]urea]	148	94.1

The next molecules have a lower IC50 [1] than those just listed; values first:

IC50 [1] [nM]	IC50 [2] [nM]	Structure (SMILES)
0.79	83.6	Cc1cccc(NC(=O)NC2N=C(N(C)C3CCCCCC3)c3ccccc3N(C)C2=O)c1 (racemic) [Example 66, N-[3(R,S)-5-(N-Cycloheptyl-N-methylamino)-2,3-dihydro-1-methyl-2-oxo-1H-1,4-benzodiazepin-3-yl]-N'-[3-methylphenyl]urea]
2.82	469	CN1C(=O)C(NC(=O)Nc2ccc3c(c2)CCC3)N=C(N(C)C2CCCCCC2)c2ccccc21 (racemic) [Example 69, N-[3(R,S)-5-(N-Cycloheptyl-N-methylamino)-2,3-dihydro-1-methyl-2-oxo-1H-1,4-benzodiazepin-3-yl]-N'-[5-indanyl]urea]
10.3	176	Cc1cccc(NC(=O)NC2N=C(N(C)Cc3ccccc3)c3ccccc3N(C)C2=O)c1 (racemic) [Example 72, N-[3(R,S)-5-(N-Benzyl-N-methylamino)-2,3-dihydro-1-methyl-2-oxo-1H-1,4-benzodiazepin-3-yl]-N'-[3-methylphenyl]urea]
7.3	192	Cc1cccc(NC(=O)NC2N=C(N(C)CC3CCCCC3)c3ccccc3N(C)C2=O)c1 (racemic) [Example 74]
3.12	760	CCN(C1=NC(NC(=O)Nc2cccc(C)c2)C(=O)N(C)c2ccccc21)C1CCCC1 (racemic) [Example 76, N-[3(R,S)-5-(N-Cyclopentyl-N-ethylamino)-2,3-dihydro-1-methyl-2-oxo-1H-1,4-benzodiazepin-3-yl]-N'-[3-methylphenyl]urea]
4.5	891	CCN(C1=NC(NC(=O)Nc2cccc(C)c2)C(=O)N(C)c2ccccc21)C1CCCCC1 (racemic) [Example 78, N-[3(R,S)-5-(N-Cyclohexyl-N-ethylamino)-2,3-dihydro-1-methyl-2-oxo-1H-1,4-benzodiazepin-3-yl]-N'-3-methylphenyl]urea]
13.4	1700	CCCN(C1=NC(NC(=O)Nc2cccc(C)c2)C(=O)N(C)c2ccccc21)C1CCCCC1 (racemic) [Example 79, N-[3(R,S)-5-(N-Cyclohexyl-N-propylamino)-2,3-dihydro-1-methyl-2-oxo-1H-benzodiazepin-3-yl]-N'-[3-methylphenyl]urea]
23.2	14.9	Cc1cccc(NC(=O)NC2N=C(NC3CCCCC3)c3ccccc3N(C)C2=O)c1 (racemic) [Example 81, N-[3(R,S)-5(N-Cyclohexylamino)-2,3-dihydro-1-methyl-2-oxo-1H-1,4-benzodiazepin-3-yl]-N'-[3-methylphenyl]urea]
0.47	815	CN1C(=O)C(NC(=O)Nc2ccc3c(c2)CCC3)N=C(N(C)C2CCCCC2)c2ccccc21 (racemic) [Example 82, N-[3(R,S)-5-(N-Cyclohexyl-N-methylamino)-2,3-dihydro-1-methyl-2-oxo-1H-1,4-benzodiazepin-3-yl]-N'-[5-indanyl]urea]
3.67	283	Cc1cccc(NC(=O)NC2N=C(N(C)C3CCCCCCC3)c3ccccc3N(C)C2=O)c1 (racemic) [Example 83, N-[3(R,S)-5-(N-Cyclooctyl-N-methylamino)-2,3-dihydro-1-methyl-2-oxo-1H-1,4-benzodiazepin-3-yl]-N'-[3-methylphenyl]urea]
31.3	831	Cc1cncc(NC(=O)NC2N=C(N(C)C3CCCCCC3)c3ccccc3N(C)C2=O)c1 (racemic) [Example 86, N-[3(R,S)-5-(N-Cycloheptyl)-N-methylamino)-2,3-dihydro-1-methyl-2-oxo-1H-1,4-benzodiazepin-3-yl]-N'-[3-(5-methylpyridine)]urea]
4.6	12.3	Cc1cccc(NC(=O)NC2N=C(N3C[C@H]4CCCC[C@H]4C3)c3ccccc3N(C)C2=O)c1 (relative stereo) [Example 57, N-[3(R,S)-2,3-Dihydro-1-methyl-5-(cis-octahydroisoindol-2-yl)-2-oxo-1H-1,4-benzodiazepin-3-yl]-N'-[3-methylphenyl]urea]
0.49	738	CN1C(=O)C(NC(=O)Nc2ccc3c(c2)CCC3)N=C(N2CCC(C)(C)CC2)c2ccccc21 (single isomer, unassigned) [5 (enantiomer A)]

Reference: patent US5618812A, “Benzodiazepine derivatives” (Merck Sharp & Dohme, Ltd., priority 1992, dated 1997)
